In US20090142304A1, “Composition for Improving Intestinal Flora” (priority 2005, published 2009):

What was measured:
Assay type in all cases: in vivo
Bifidobacterium [1] = assay: Growth effect on Bifidobacterium in human feces by intake of 1-kestose (Example 1); conditions: 10 g per day orally for 2 months, 5 mild diabetes subjects
Description: (§1) Quantitative determination of intestinal lactic acid bacteria counts can be carried out by a conventional method. For example, the lactic acid bacteria counts can be quantitatively determined according to the Mitsuoka's method (Mitsuoka Tomotari, “Chounaikin no Sekai (The World of Intestinal Bacteria)”, Sobunsha Co., Ltd., Tokyo, p. 53-65) by sampling feces of a tested subject. The intestinal Bifidobacterium count can be similarly quantitatively determined.
(§2) A sample composition containing 99.4% of 1-kestose, 0.15% of acesulfame potassium, 0.32% of sucralose and 0.13% of Sweetness Enhancer ME-2208T (Trade Name) (Firmenich SA) was used (all by % by weight).
In a test, each 10 g per day of the sample composition was fed orally for 2 months to 7 male and female test subjects with mild diabetes in the age range of 20 to 70 years. Samples of the feces of the respective subjects were collected just before the start of intake (month 0), 2 months after the start of intake (month 2) and 1 month after the end of intake (month 3), and the lactic acid bacteria counts in the samples were quantitatively determined by the method of Mitsuoka (Mitsuoka Tomotari “Chounaikin no Sekai (The World of Intestinal Bacteria)” Sobunsha Co., Ltd., Tokyo, p. 53-65). Similarly, the Bifidobacterium counts in the samples were quantitatively determined. […]

Lactobacillus sp. = assay: Growth effect on lactic acid bacteria in human feces by intake of Meioligo P (Example 2)
Description: as §1
(§3) As a sample composition, Meioligo P (Trade Name) (Meiji Seika Kaisha), which was a composition containing 35% of 1-kestose, 55% of nystose and 10% of fructo-furanosyl nystose, was used.
(§4) In a test, each 3 g per day of the sample composition (1.05 g based on the weight of 1-kestose) was fed orally for 2 months to 7 healthy female test subjects in the age range of 19 to 41 years. Samples of the feces of the respective subjects were then collected just before the start of intake (week 0), 2 weeks after the start of intake (week 2) and 2 weeks after the end of intake (week 4), and the lactic acid bacteria count and the Bifidobacterium count in the samples were quantitatively determined similarly to Example 1.
(§5) The changes of the lactic acid bacteria count and the Bifidobacterium count in the feces by the intake of 1-kestose with respect to the 7 subjects are shown in the Figures.

Bifidobacterium [2] = assay: Growth effect on Bifidobacterium in human feces by intake of Meioligo P (Example 2); conditions: fed as Meioligo P 3 g per day (1.05 g 1-kestose)
Description: as §1, §3, §4, §5

[3] = tested on: lactic acid bacteria belonging to genus Lactobacillus; assay: Growth effect on lactic acid bacteria in human intestine by intake of 1-kestose (Example 1, fecal count, Mitsuoka method)
Description: as §1, §2
In a test, each 10 g per day of the sample composition was fed orally for 2 months to 7 male and female test subjects with mild diabetes in the age range of 20 to 70 years. Samples of the feces of the respective subjects were collected just before the start of intake (month 0), 2 months after the start of intake (month 2) and 1 month after the end of intake (month 3), and the lactic acid bacteria counts in the samples were quantitatively determined by the method of Mitsuoka (Mitsuoka Tomotari “Chounaikin no Sekai (The World of Intestinal Bacteria)” Sobunsha Co., Ltd., Tokyo, p. 53-65). Similarly, the Bifidobacterium counts in the samples were quantitatively determined.
By 5 out of the subjects 7, lactic acid bacteria belonging to genus Lactobacillus were detected at 10^6 CFU/g-feces or higher, and the changes of the lactic acid bacteria count and the Bifidobacterium count by the intake of 1-kestose with respect to the 5 subjects are shown in the Figures.

In the case of `OC[C@H]1O[C@@](CO)(OC[C@@]2(O[C@H]3O[C@H](CO)[C@@H](O)[C@H](O)[C@H]3O)O[C@H](CO)[C@@H](O)[C@@H]2O)[C@@H](O)[C@@H]1O` [1-kestose], the “increase of mean Bifidobacterium count, after vs before the intake” value (Bifidobacterium [1]) is reported as “about 7 fold”, the “subjects in whom the Bifidobacterium count was increased” value (Bifidobacterium [1]; sample composition 99.4% 1-kestose) is reported as “all of 5” and the “increase of mean Lactobacillus sp. count, after vs before the intake” value (Lactobacillus sp.; fed as Meioligo P 3 g per day (1.05 g 1-kestose), 7 healthy females) is reported as “about 20 fold”. The “increase of Lactobacillus sp. count in each of the 4 subjects with increase” value (Lactobacillus sp.; fed as Meioligo P 3 g per day (1.05 g 1-kestose), the 4 subjects with increase) was at least 10 fold, the “subjects in whom the count of Lactobacillus sp. was increased by intake” value (Lactobacillus sp.; fed as Meioligo P (35% 1-kestose, 55% nystose, 10% fructo-furanosyl nystose), 3 g per day (1.05 g 1-kestose) orally, 7 healthy female subjects) was 4 out of 7 and the “subjects in whom the Bifidobacterium count was increased” value (Bifidobacterium [2]; 7 healthy female subjects) was 6 out of the 7. For the same compound, the “increase of mean Bifidobacterium count, after vs before the intake” value (Bifidobacterium [2]; 7 healthy females) was “about 2 fold”, the “increase of mean Lactobacillus sp. count, after vs before the intake” value ([3]; 10 g per day orally for 2 months, 5 mild diabetes subjects) was “about 10 fold” and the “effect of the composition containing 1-kestose by lactic acid bacteria count in the feces” value ([3]; human whose lactic acid bacteria count in the feces is ≧10^6 CFU/g or higher (Example 1)) was “stronger”. For the same compound, the “subjects in whom the count of Lactobacillus sp. was increased by intake” value ([3]; sample composition 99.4% 1-kestose, 10 g per day orally for 2 months, subjects with mild diabetes with Lactobacillus at 10^6 CFU/g-feces or higher (5 of 7)) was 4 out of the 5.
